Patent US20090247495A1, “CU[…] AND USES THEREOF” (priority 2007, published 2009)

Key:
K562 = assay: Cell proliferation assay using SRB, K562; format: cell-based; details: Homo sapiens, 48 hours treatment
Procedure: Human leukemia cell lines CCRF-CEM, K562, MOLT-4, RPMI-8226 and SR, purchased from the National Cancer Institute (NCI), were cultured in RPMI 1640 medium supplemented with 5%(v/v) fetal Bovine […] and 100 units/ml penicillin and 100 units/ml streptomycin in a humidified 5% CO2 atmosphere at 37° C. • 6.1.2 Reagents and Antibodies
All 5 human leukemia cells were screened by the cell proliferation assay using SRB to quantitative cell protein mass following cucurbitacin B treatment. The experiments were repeated in triplicate. Appropriate number of cells (depends on the doubling time of cells) were seeded into a 96-well tissue culture plate and growth in the indicated medium in presence of different dosages of cucurbitacin B for 2 days. Afterwards 25 μl 80%TCA reagent was added into each well to fix the cells and the plates were incubated at 4° C. at least for 1 hour. Then the plates were washed with tap water and air dried. […] The plates were air dried and dissolved by 100 μl 1 OmMTrizma-base solution and the absorbance was measured at 515 nm using FLUOstar OPTIMA equipment. • 6.1.4 Flow Cytometry for Apoptosis Analysis
Appropriate number of cell density were seeded into a 96 well culture plate and treated with different doses of cucurbitacin B for 2 days. The growth inhibition effects of cucurbitacin B on the cells were detected using SRB.

K562 cells = assay: Flow cytometry for cell cycle analysis, K562; format: cell-based, human; details: 80 nM, 48 hours, serum starved 24 hours
Procedure: K562 cells were serum starved for 24 hours prior to cucurbitacin B treatment. After 48 hours of treatment, the cells were collected and rinsed twice with phosphate-buffer saline and fixed with 80% ice-cold ethanol for […]. Then, the cells were stained with propidium iodine at 1 mg/ml for 15 minutes at room temperature. The stained cells were analyzed by flow cytometry (FACS Calibur BD Flow Cytometer) • 6.1.6 Western Blot Analysis
Appropriate numbers of cell density were serum starved for 24 hours prior to treatment with different doses of cucurbitacin B for 2 days. The cell cycle analysis profile of K562 cells after cucurbitacin B treatment were detected using Flow Cytometry analysis after fixed with 80% ice-cold ethanol at 4° C. and then stained with PI for 15 minutes.

Stat3 = assay: Western blot of Stat3 activation in HepG2, HT29 and MCF-7 cells; format: cell-based, human
Prostate cancer = assay: SRB growth inhibition, prostate cancer lines of the NCI panel; format: cell-based; details: Homo sapiens, 48 hours
Text: Human cancer cell lines from the 59-NCI Cancer Cell Line Panel including leukemia, melanoma and cancers of breast, brain, colon, lung, ovary, prostate and kidney, were purchased from the National Institute of Cancer (USA). The growth inhibition (GI50) of these cell lines treated with cucurbitacin B and cucurbitacin D in various concentrations was investigated.
59 human cancer cell lines were maintained in RPMI 1640 (Invitrogen Life Technologies, CA, USA) supplemented with 5% Fetal Bovine Serum, 2 mM L-glutamine and 1% Penicillin/Streptomycin (Invitrogen Life Technologies) at 37° C. with 5% CO2. All chemicals were purchased from Sigma (St. Louis, Mo., USA) unless specified otherwise.
Sulforhodamine B (SRB) assay was applied to determine the cytostatic effect of cucurbitacin B and cucurbitacin D. SRB is a dye that binds to cellular proteins and will be dissolved in base. The biomass of total protein can be measured at 520 nm using a plate reader.
Cells were inoculated into 96-well microtiter plates including “Time zero” (Tz) plates in 100 μl at cell concentrations from 5000 to 40,000 cells per well according to NCI guideline. The cells were incubated at 37° C. with 5% CO2 for 24 hours. […] Bound SRB was solubilized with 100-200 ul per well of 10 mM trizma base and absorbance was measured at a wavelength of 520 nm. The percentage of growth inhibition was calculated as follows: […]

Panc-1 and SW cells = assay: Annexin V / PI apoptosis by flow cytometry, pancreatic cells; format: cell-based, human; details: 48 h, increasing concentration
Procedure: Panc-1 and SW cells was incubated with vary doses of cucurbitacin B for 48 h at 37° C. At the end of treatment, cells were washed twice with cold PBS and resuspended at 2×10^6 cells/ml in 1×binding buffer. The cells were then stained with Annexin V and propidium iodide. All analyses were performed by flow cytometry.

[1] = system: Human pancreatic cancer cell line Panc-1; assay: Hollow fiber assay, Panc-1; format: in vivo, nude mice; details: up to 8 days
Procedure: The hollow fiber assay (HFA) was developed by the NCI as a high-throughput, preliminary in vivo screening assay for the evaluation of anti-cancer agents.
Human pancreatic cancer cell line Panc-1 were in vitro cultured inside hollow fibers for overnight, followed by in vivo implantation at s.c. sites of the nude mice. Mice were treated with vehicle control (0.5% CMC), positive control (100 mg/kg Gemcitabine) and 3 doses of cucurbitacin B (0.1 mg/kg, 0.5 mg/kg and 1.0 mg/kg) for up to 8 days. Then the fibers were excised and analyzed for cell viability by MTT assay. An additional group, the growth control group was also included in the assay. Mice in this group were sacrificed on the first day of treatment, and fibers were excised and analyzed for cell viability by MTT assay. The efficacies of cucurbitacin B against Panc-1 were expressed as the inhibited (or not) net growth percentage of the cancer cells when compared to the vehicle control group.

For `CC(=O)OC(C)(C)/C=C/C(=O)[C@](C)(O)C1[C@H](O)C[C@@]2(C)C3CC=C4C(C[C@H](O)C(=O)C4(C)C)[C@]3(C)C(=O)C[C@]12C` (some centres unmarked) [cucurbitacin B], the GI50 (K562) was 15.6 nM, the “percentage in the G2/M phase” value (K562 cells) was 70% and the Stat3 activation (Stat3; HepG2 cells and HT29 cells, 25 ug/ml, 30 minutes) was “inhibited significantly”. For the same compound, the Stat3 activation (Stat3; MCF-7 cells) was “no significant change”, the GI50 (Prostate cancer) was 17 nM and the apoptotic cells (Panc-1 and SW cells) was “the percentage of apoptic cells rise”. The “net-growth of Panc-1 compared to the vehicle control group” value ([1]; 0.1 mg/kg and 0.5 mg/kg) was “about 40%” and the “net cell growth of Panc-1 in hollow fibers” value ([1]; 0.1 mg/kg, 0.5 mg/kg and 1.0 mg/kg) was “potently inhibited”.
